Assay results: ChEMBL document CHEMBL1275268, “Computational analysis of ligand recognition sites of homo- and heteropentameric 5-HT3 receptors” (Eur J Med Chem, 2010)

Columns and labels:
[1] = Chemical stability of the compound assessed as half life; format: physicochemical
[2] = target: T1, 5-hydroxytryptamine receptor 3A (Homo sapiens, UniProt P46098); assay: Binding affinity to 5HT3A receptor
T1 sequence (P46098 whole entry): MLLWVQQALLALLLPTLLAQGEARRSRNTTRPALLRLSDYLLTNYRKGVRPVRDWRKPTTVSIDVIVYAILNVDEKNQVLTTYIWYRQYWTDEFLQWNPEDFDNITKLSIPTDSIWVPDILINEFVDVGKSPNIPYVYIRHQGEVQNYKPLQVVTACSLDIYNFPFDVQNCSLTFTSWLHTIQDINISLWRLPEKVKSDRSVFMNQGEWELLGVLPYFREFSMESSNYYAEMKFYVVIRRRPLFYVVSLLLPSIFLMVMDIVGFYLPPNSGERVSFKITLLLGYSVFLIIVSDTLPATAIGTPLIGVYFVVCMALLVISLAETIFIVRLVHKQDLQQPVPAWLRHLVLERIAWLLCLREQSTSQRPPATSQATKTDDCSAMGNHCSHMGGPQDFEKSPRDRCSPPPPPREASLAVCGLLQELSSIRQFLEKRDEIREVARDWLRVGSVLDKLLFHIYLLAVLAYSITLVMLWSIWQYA

half-life [1]	Ki [2]	Structure (SMILES)
5 h	–	CN1C2CCCC1CC(NC(=O)c1nn(C)c3ccccc13)C2 (stereo not drawn) [GRANISETRON]
38 h	0.0316 nM	O=C1c2cccc3c2[C@H](CCC3)CN1[C@@H]1CN2CCC1CC2 [PALONOSETRON]
